The record followed here is PubChem BioAssay AID849 (SRMLSC, 2007).

Each structure is given as a SMILES string. Activity calls are given as the source filed them. The rule behind the calls is not given here. Where only a bound is given, the exact number is not on record here.

For this test, the system named is Saccharomyces cerevisiae lifespan shortening, growth inhibition. In words: yeast lifespan shortening compounds, dose response (AID 849).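 Note: yeast growth read as optical density after two days at 30 degrees C.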
For the compound `CCN1CCN(c2ncnc3c2sc(=S)n3-c2ccccc2)CC1`, the IC50 was > 100 µM (inactive).
As for `O=C(OCn1ncc(Br)c(Br)c1=O)c1ccc(F)cc1`, the figure is 6.92 µM.
As for `CCOC(=O)c1c(N)sc(C(O)(C(F)(F)F)C(F)(F)F)c1-c1ccc(Cl)cc1`, the IC50 is > 100 µM (inactive).
On to `Cc1ccc(C(=O)OCn2ncc(Cl)c(Cl)c2=O)cc1`, for which the IC50 is 3.73 µM.
On to `CC(C)(CNC(=S)NCCc1ccccc1)CNC(=S)NCCc1ccccc1`, for which the IC50 is > 100 µM (inactive).
With `COc1cc(C(=O)NC(=S)NNC(=O)c2cnccn2)cc(OC)c1OC`, the IC50 is 12.8 µM.
As to `CN1CCc2cc3c(c4c2[C@H]1[C@H](O)c1ccccc1-4)OCO3`, the IC50 was 35.4 µM.
Take `Cc1cc(C(=O)N/N=C/c2cccc([N+](=O)[O-])c2O)n[nH]1`: the IC50 was > 100 µM (inactive).
